Measurements reported in US8846671B2, “Heterocyclic alkynyl benzene compounds and medical compositions and uses thereof” (Guangzhou Institute of Biomedicine and Health, Chinese …, priority 2010, dated 2014).
pIC50: −log10 of the molar value. Read-outs that look alike come from different tables or passages of the source.

How the values were obtained:
[1] = test system: K562R cells (imatinib-resistant cell line); test: tumor cell proliferation, MTT or CCK8 assay, 72 h incubation; assay type: cell-based; details: Homo sapiens, K-562R, imatinib-resistant K562R, read-out: IC50 on tumor cell proliferation, K562R cells
[2] = test system: K562 (human chronic myelogenous leukemia cell line); test: as above; assay type: cell-based; details: K562, 72 h, read-out: IC50 on tumor cell proliferation, K562; for IC50: MTT or CCK8, nM; for pIC50: MTT or CCK8, no unit in cell
Description: (§1) The heterocyclic alkynyl benzene compounds at different concentrations (1×10^−10˜1×10^−5M) were incubated for 72 hours individually applied to 6 cell lines K562 (human CML cell line), MOLT-4 (human ALL cell line), U937 (human CML cell line), MEG-01 (human CML cell line), L78 (human lung cancer cell line), Ba/F3-T315I (mice Pro-B cells transformed with Bcr-AblT315I and STI57′-resistant cell line). After incubation for 72 hrs, cell proliferation was then determined by MTT assay or CCK8 assay, and 4 hr incubation is further conducted, the absorbance at 570 nm (CCK8, 450 nm, 650 nm) was measured using enzyme Microplate Reader. […] Based on the inhibition potency of the heterocyclic alkynyl benzene compounds on the cell proliferation, IC50 values were calculated and summarized in the Table 1 and Table 2 (The compounds used were synthesized by Examples 1-40, and the compounds are marked with Drug No. series in Table 1).

[3] = test system: MOLT-4 (Human acute lymphoblastic leukemia cell line); test: as above; assay type: cell-based; details: MOLT-4, 72 h, read-out: IC50 on tumor cell proliferation, MOLT-4; for IC50: MTT or CCK8, nM; for pIC50: MTT or CCK8, no unit in cell
Description: as §1

[4] = Pharmacokinetics and bioavailability in rats; assay type: in vivo; details: SD rats; corresponding pharmaceutical acceptable salt forms
Description: Pharmacokinetics and bioavailability in rats. […] The blood samples were collected at the proper time points after administration, add heparin-anticoagulant, and the supernatants of the blood samples were collected (3000 rpm, 10 min) and stored at -20° C. for HPLC-MS analysis. After protein-precipitation procedure with acetonitrile, supernatants were collected after 3000 rpm, 10 min for analysis with HPLC-MS. The data were analyzed with software DAS2.0 to separately acquire the parameters of compartment models and non-compartment models. The bioavailability was calculated according to AUC data.

[5] = target: BAF3-T315I cells (Ba/F3 cell line stably expressing BCR/ABL T315I) (Homo sapiens, UniProt P00519, T315I, cells depend on it); test: tumor cell proliferation, MTT or CCK8 assay, 72 h incubation; assay type: cell-based, mice
Description: The heterocyclic alkynyl benzene compounds at different concentrations (1×10^−10˜1×10^−5M) were incubated for 72 hours individually applied to 6 cell lines K562 (human CML cell line), MOLT-4 (human ALL cell line), U937 (human CML cell line), MEG-01 (human CML cell line), L78 (human lung cancer cell line), Ba/F3-T315I (mice Pro-B cells transformed with Bcr-AblT315I and STI57′-resistant cell line). After incubation for 72 hrs, cell proliferation was then determined by MTT assay or CCK8 assay, and 4 hr incubation is further conducted, the absorbance at 570 nm (CCK8, 450 nm, 650 nm) was measured using enzyme Microplate Reader.

[6] = test system: U937 Cell line; test: as above; assay type: cell-based; details: Homo sapiens, U-937; 72 h, MTT or CCK8; no unit in cell; read-out: IC50 on tumor cell proliferation, U937
Description: as §1

[7] = Ba/F3 expressing BCR/ABL T315I, 72 h, Table 1; read-out: IC50 on tumor cell proliferation, BAF3-T315I cells

| SMILES | pIC50 [1] | IC50 [2] [nM] | IC50 [3] [nM] | pharmacokinetics parameters, overall judgement [4] | GI50 ([5]; read-out: IC50 on tumor cell proliferation, BAF3-T315I cells; Ba/F3 expressing BCR/ABL T315I, 72 h, Table 1) [nM] | pIC50 [2] | pIC50 [6] | GI50 [5, 7] [nM] | pIC50 [3] |
| --- | --- | --- | --- | --- | --- | --- | --- | --- | --- |
| Cc1ccc(C(=O)Nc2ccc(CN3CCN(C)CC3)c(C(F)(F)F)c2)cc1C#Cc1cnc2[nH]ncc2c1 [D824, 3-(2-(1H-pyrazolo[3,4-b]pyridin-5-yl)ethynyl)-4-methyl-N-(4-((4-methylpiperazin-1-yl)methyl)-3-(trifluoromethyl)phenyl)benzamide] | 7.85 | 0.494 | > 100 | adequate pharmacokinetics parameters | 1.65 |  |  |  |  |
| Cc1cn(-c2cc(Cl)cc(NC(=O)c3ccc(C)c(C#Cc4cnc5[nH]ncc5c4)c3)c2)cn1 [D964, 3-(2-(1H-pyrazolo[3,4-b]pyridin-5-yl)ethynyl)-N-(3-chloro-5-(4-methyl-1H-imidazol-1-yl)phenyl)-4-methylbenzamide] | 7.49 |  |  |  |  | 9.03 | < 6.00 | 24.2 |  |
| Cc1ccc(C(=O)Nc2ccc(CN3CC[C@@H](N(C)C)C3)c(C(F)(F)F)c2)cc1C#Cc1cnc2ccnn2c1 [D943] | 6.50 |  |  |  |  | 8.08 | 5.67 | 618 | 5.79 |
| Cc1cn(-c2cc(NC(=O)c3ccc(C)c(C#Cc4cnc5ccnn5c4)c3)cc(C(F)(F)F)c2)cn1 [D822, 4-methyl-N-(3-(4-methyl-1H-imidazol-1-yl)-5-(trifluoromethyl)phenyl)-3-(2-(pyrazolo[1,5-a]pyrimidin-6-yl)ethynyl)benzamide] | 6.24 | 4.34 | > 100 | adequate pharmacokinetics parameters |  |  |  | 1100 |  |
| Cc1cn(-c2cc(F)cc(NC(=O)c3ccc(C)c(C#Cc4cnc5[nH]ncc5c4)c3)c2)cn1 [D963, 3-(2-(1H-pyrazolo[3,4-b]pyridin-5-yl)ethynyl)-N-(3-fluoro-5-(4-methyl-1H-imidazol-1-yl)phenyl)-4-methylbenzamide] | 7.12 |  |  |  |  | 9.00 | < 6.00 | 243 |  |
| Cc1cn(-c2cc(NC(=O)c3ccc(C)c(C#Cc4ccc(N)nc4)c3)cc(C(F)(F)F)c2)cn1 [D827, 3-(2-(6-aminopyridin-3-yl)ethynyl)-4-methyl-N-(3-(4-methyl-1H-imidazol-1-yl)-5-(trifluoromethyl)phenyl)benzamide] | 7.23 | 2.68 | 1850 |  |  |  |  | 29.8 |  |
| Cc1cn(-c2cc(NC(=O)c3ccc(C)c(C#Cc4cnc5ccnn5c4)c3)cc(C(C)(C)C)c2)cn1 [D941, N-(3-tert-butyl-5-(4-methyl-1H-imidazol-1-yl)phenyl)-4-methyl-3-(2-(pyrazolo[1,5-a]pyrimidin-6-yl)ethynyl)benzamide] | 6.39 |  |  |  |  | 8.63 | 6.16 | 102 | 6.47 |
| Cc1ccc(C(=O)Nc2ccc(CN3CC[C@H](N(C)C)C3)c(C(F)(F)F)c2)cc1C#Cc1cnc2ccnn2c1 [D940, (S)—N-(4-((3-(dimethylamino)pyrrolidin-1-yl)methyl)-3-(trifluoromethyl)phenyl)-4-methyl-3-(2-(pyrazolo[1,5-a]pyrimidin-6-yl)ethynyl)benzamide] | 7.49 |  |  |  |  | 7.18 | 6.15 | 245 | 6.02 |
| Cc1ccc(C(=O)Nc2ccc(CN3CCN(CCO)CC3)c(C(F)(F)F)c2)cc1C#Cc1cnc2ccnn2c1 [D942, N-(4-((4-(2-hydroxyethyl)piperazin-1-yl)methyl)-3-(trifluoromethyl)phenyl)-4-methyl-3-(2-(pyrazolo[1,5-a]pyrimidin-6-yl)ethynyl)benzamide] | 7.36 |  |  |  |  | 8.45 | 5.89 | 102 | 6.17 |
| Cc1ncn(-c2cc(NC(=O)c3ccc(C)c(C#Cc4cnc5[nH]ncc5c4)c3)cc(C(F)(F)F)c2)n1 [D835, 3-(2-(1H-pyrazolo[3,4-b]pyridin-5-yl)ethynyl)-4-methyl-N-(3-(3-methyl-1H-1,2,4-triazol-1-yl)-5-(trifluoromethyl)phenyl)benzamide] | 7.59 | 0.402 | > 100 |  |  |  |  | 8.58 |  |
| Cc1cn(-c2cc(NC(=O)c3ccc(C)c(C#Cc4cnc5[nH]ncc5c4)c3)cc(C(C)(C)C)c2)cn1 [D968, 3-(2-(1H-pyrazolo[3,4-b]pyridin-5-yl)ethynyl)-N-(3-tert-butyl-5-(4-methyl-1H-imidazol-1-yl)phenyl)-4-methylbenzamide] | 7.49 |  |  |  |  | 9.15 | < 6.00 | 6.36 |  |
| Cc1ccc(C(=O)Nc2ccc(CN3CC[C@@H](N(C)C)C3)c(C(F)(F)F)c2)cc1C#Cc1cnc2[nH]ncc2c1 [D965, (R)-3-(2-(1H-pyrazolo[3,4-b]pyridin-5-yl)ethynyl)-N-(4-((3-(dimethylamino)pyrrolidin-1-yl)methyl)-3-(trifluoromethyl)phenyl)-4-methylbenzamide] | 8.24 |  |  |  |  | 9.23 | 6.09 | 6.87 |  |
| Cc1ccc(C(=O)Nc2ccc(CN3CCN(C)CC3)c(C(F)(F)F)c2)cc1C#Cc1cnc(NC2CC2)nc1 [D825, 3-(2-(2-(cyclopropylamino)pyrimidin-5-yl)ethynyl)-4-methyl-N-(4-((4-methylpiperazin-1-yl)methyl)-3-(trifluoromethyl)phenyl)benzamide] | 7.30 | 1.88 | 92.9 | adequate pharmacokinetics parameters |  |  |  | 15.7 |  |
| Cc1ccc(C(=O)Nc2cc(-n3ccnc3)cc(C(F)(F)F)c2)cc1C#Cc1cnc2[nH]ncc2c1 [D831, N-(3-(1H-imidazol-1-yl)-5-(trifluoromethyl)phenyl)-3-(2-(1H-pyrazolo[3,4-b]pyridin-5-yl)ethynyl)-4-methylbenzamide] | 7.27 | 0.466 | 7130 | adequate pharmacokinetics parameters |  |  |  | 36.8 |  |
| Cc1ccc(C(=O)Nc2ccc(CN3CCOCC3)c(C(F)(F)F)c2)cc1C#Cc1cnc2ccnn2c1 [D931, 4-methyl-N-(4-(morpholinomethyl)-3-(trifluoromethyl)phenyl)-3-(2-(pyrazolo[1,5-a]pyrimidin-6-yl)ethynyl)benzamide] | 6.29 |  |  |  |  | < 5.00 | 5.34 | 2750 | 5.13 |
| Cc1ccc(C(=O)Nc2ccc(CN3CC[C@H](N(C)C)C3)c(C(F)(F)F)c2)cc1C#Cc1cnc2[nH]ncc2c1 [D966, (S)-3-(2-(1H-pyrazolo[3,4-b]pyridin-5-yl)ethynyl)-N-(4-((3-(dimethylamino)pyrrolidin-1-yl)methyl)-3-(trifluoromethyl)phenyl)-4-methylbenzamide] |  |  |  |  |  | 9.49 | 7.73 | 13.8 |  |
| Cc1cn(-c2cc(NC(=O)c3ccc(C)c(C#Cc4cnc(NC[C@H](O)CO)nc4)c3)cc(C(F)(F)F)c2)cn1 [D834, 3-(2-(2-((S)-2,3-dihydroxypropylamino)pyrimidin-5-yl)ethynyl)-4-methyl-N-(3-(4-methyl-1H-imidazol-1-yl)-5-(trifluoromethyl)phenyl)benzamide] | 6.72 | 8.7 | > 100 |  |  |  |  | 215 |  |
| Cc1cn(-c2cccc(NC(=O)c3ccc(C)c(C#Cc4cnc5[nH]ncc5c4)c3)c2)cn1 [D967, 3-(2-(1H-pyrazolo[3,4-b]pyridin-5-yl)ethynyl)-4-methyl-N-(3-(4-methyl-1H-imidazol-1-yl)phenyl)benzamide] | 6.68 |  |  |  |  | 9.50 | 5.23 | 798 |  |
